Assay results taken from the supplement of paper PMC11061612.

How the values were obtained:
Experiment in all cases: Bliss excess, mean over the matrix (fraction); higher = more synergy
[1] = tested on: A4-Fuk (B-Lymphoblastic Leukemia)
Method in brief: (§1)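 Bliss excess equals the observed combination effect minus the expected value EA + EB − EA·EB, where EA and EB are the effects of each agent alone. Combination Emax is the second-highest inhibition within the matrix. Inhibition was scaled from CellTiter-Glo 2.0 luminescence, with 0 set by vehicle wells and 1 by blank wells, after 72 hours of two-drug dosing of cells plated in 1536-well plates.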

[2] = tested on: ALL-SIL (T-Lymphoblastic Leukemia)
Method in brief: as §1

COLO-679 (Melanoma) = tested on: COLO-679 (Melanoma)
Method in brief: as §1

[3] = tested on: Ca-Ski (Cervical Carcinoma)
Method in brief: as §1

[4] = tested on: DU-145 (Prostate Carcinoma)
Method in brief: as §1

[5] = tested on: EJM (Plasma Cell Myeloma)
Method in brief: as §1

EW-1 (Ewing's Sarcoma) = tested on: EW-1 (Ewing's Sarcoma)
Method in brief: as §1

[6] = tested on: HCC1500 (Breast Carcinoma)
Method in brief: as §1

[7] = tested on: HCC2998 (Colorectal Carcinoma)
Method in brief: as §1

[8] = tested on: KGN (Other Solid Carcinomas)
Method in brief: as §1

[9] = tested on: MDA-MB-453 (Breast Carcinoma)
Method in brief: as §1

[10] = tested on: MOG-G-UVW (Low Grade Glioma)
Method in brief: as §1

[11] = tested on: Mo-T (Other Blood Carcinomas)
Method in brief: as §1

[12] = tested on: NCI-H2122 (Lung Adenocarcinoma)
Method in brief: as §1

[13] = tested on: NCI-H522 (Lung Adenocarcinoma)
Method in brief: as §1

[14] = tested on: OE33 (Esophageal Adenocarcinoma)
Method in brief: as §1

[15] = tested on: SK-LU-1 (Lung Adenocarcinoma)
Method in brief: as §1

SK-N-AS (Neuroblastoma) = tested on: SK-N-AS (Neuroblastoma)
Method in brief: as §1

[16] = tested on: SKN (Other Solid Carcinomas)
Method in brief: as §1

[17] = tested on: SW872 (Other Solid Carcinomas)
Method in brief: as §1

SMILES | Bliss excess [1] | Bliss excess [2] | Bliss excess (COLO-679 (Melanoma)) | Bliss excess [3] | Bliss excess [4] | Bliss excess [5] | Bliss excess (EW-1 (Ewing's Sarcoma)) | Bliss excess [6] | Bliss excess [7] | Bliss excess [8] | Bliss excess [9] | Bliss excess [10] | Bliss excess [11] | Bliss excess [12] | Bliss excess [13] | Bliss excess [14] | Bliss excess [15] | Bliss excess (SK-N-AS (Neuroblastoma)) | Bliss excess [16] | Bliss excess [17]
Cn1cnc2c(F)c(Nc3ccc(Br)cc3Cl)c(C(=O)NOCCO)cc21 [Selumetinib] + CC(C)n1c(=O)n(C)c2cnc3cc(F)c(-c4ccc(OCCCN5CCCCC5)nc4)cc3c21 [AZD1390] (first compound max 10 µM, 7x7, partner max 0.3 µM) | 0.0335 | -0.0164 | -0.0416 | -0.0032 | -0.0312 | -0.0131 | -0.0419 | -0.0156 | 0.0076 | 0.0282 | -0.0148 | 0.0397 | -0.0339 | -0.0099 | -0.0483 | -0.0277 | -0.02 | -0.019 | -0.0616 | 0.0169
CCN(CCO)CCCOc1ccc2c(Nc3cc(CC(=O)Nc4cccc(F)c4)[nH]n3)ncnc2c1 [AZD2811] + C[C@@H]1COCCN1C2=NC(=NC(=C2)C3(CC3)[S@](=N)(=O)C)C4=C5C=CNC5=NC=C4 [AZD6738] (first compound max 1 µM, 7x7, partner max 10 µM) | -0.008 | -0.0499 | -0.103 | -0.0273 | -0.0535 | -0.0286 | 0.0268 | -0.007 | -0.0574 | -0.0854 | -0.0352 | -0.0581 | -0.0188 | -0.0436 | -0.0123 | -0.0167 | -0.0586 | -0.0365 | -0.0432 | -0.0219
CN(C)CCCOc1ccc(-c2ccc3ncc4c(c3c2)n(C2CCOCC2)c(=O)n4C)cn1 [AZD0156] + CCN(CCO)CCCOc1ccc2c(Nc3cc(CC(=O)Nc4cccc(F)c4)[nH]n3)ncnc2c1 [AZD2811] (first compound max 1 µM, 7x7, partner max 1 µM) | 0.0911 | -0.0532 | -0.0093 | 0.008 | -0.0263 | 0.0008 | 0.0446 | -0.0563 | 0.0314 | -0.0306 | -0.0208 | 0.045 | -0.0898 | 0.0471 | -0.0201 | -0.0173 | -0.0518 | -0.014 | -0.0358 | -0.0311
CC(=O)c1c(C)c2cnc(Nc3ccc(N4CCNCC4)cn3)nc2n(C2CCCC2)c1=O [Palbociclib] + Cc1c2c(nn1C)CSCc1cc(n(C)n1)CSc1cc(c3ccccc3c1)OCCCc1c(C(=O)O)n(C)c3c-2c(Cl)ccc13 [AZD5991] (first compound max 10 µM, 7x7, partner max 1 µM) | 0.0579 | -0.0576 | -0.107 | -0.0239 | -0.0216 | -0.0517 | 0.0294 | -0.0145 | -0.0746 | -0.0665 | -0.0218 | -0.0122 | -0.0208 | -0.0218 | -0.0258 | -0.0041 | -0.0693 | -0.006 | -0.0465 | -0.0184
Cc1c2c(nn1C)CSCc1cc(n(C)n1)CSc1cc(c3ccccc3c1)OCCCc1c(C(=O)O)n(C)c3c-2c(Cl)ccc13 [AZD5991] + C[C@@H]1COCCN1C2=NC(=NC(=C2)C3(CC3)[S@](=N)(=O)C)C4=C5C=CNC5=NC=C4 [AZD6738] (first compound max 1 µM, 7x7, partner max 10 µM) | -0.0297 | 0.0316 | 0.0047 | 0.0267 | 0.0122 | 0.0277 | 0.0344 | 0.105 | 0.044 | 0.0182 | 0.0525 | 0.0058 | 0.0152 | 0.0199 | 0.0595 | -0.0688 | -0.0032 | -0.0034 | -0.0121 | 0.0323
CN(C)CCCOc1ccc(-c2ccc3ncc4c(c3c2)n(C2CCOCC2)c(=O)n4C)cn1 [AZD0156] + C[C@@H]1COCCN1C2=NC(=NC(=C2)C3(CC3)[S@](=N)(=O)C)C4=C5C=CNC5=NC=C4 [AZD6738] (first compound max 1 µM, 7x7, partner max 10 µM) | -0.0079 | -0.0759 | 0.0164 | -0.0036 | -0.0233 | 0.0266 | 0.042 | -0.0112 | 0.0637 | -0.0172 | -0.0229 | 0.0282 | -0.0382 | 0.0154 | -0.0258 | -0.0451 | 0.0073 | -0.0108 | -0.0069 | 0.0187
COc1nnc2ccc(N3CCC(c4ccc(OCCN5CCN(C)C(=O)[C@H]5C)cc4)CC3)nn12 [AZD5153] + C[C@@H]1COCCN1C2=NC(=NC(=C2)C3(CC3)[S@](=N)(=O)C)C4=C5C=CNC5=NC=C4 [AZD6738] (first compound max 1 µM, 7x7, partner max 10 µM) | -0.117 | 0.079 | 0.0003 | 0.0406 | -0.0094 | 0.0187 | 0.0041 | 0.0792 | 0.0607 | -0.0865 | -0.0534 | -0.046 | -0.0184 | -0.0163 | -0.0075 | -0.0427 | 0.0147 | 0.002 | 0.0365 | -0.0383
